Patent publication US20240262863A1, “PEPTIDE FRAGMENT AND USE THEREOF” (TOAGOSEI CO., LTD., priority 2021, published 2024)
FAM = 5(6)-carboxyfluorescein

Tested on: HeLa cells
Experiment: Evaluation of cell membrane penetrating ability of FAM-labelled constructs by flow cytometry
Format: cell-based, human
Details: for MFI (mean fluorescent intensity): 10 μM in culture solution, 0.5% DMSO, 20 h incubation at 37° C., flow cytometer detector FL2; for MFI value compared to Example 2: 10 μM, 20 h incubation
Experimental: The cell membrane penetrating ability of samples 1 to 3 was evaluated using HeLa cells (an established cell line derived from human cervical cancer cells) as eukaryotic cells. […] In addition, “FAM” in Table 2 indicates the abovementioned fluorescent dye.
HeLa cells were cultured in DMEM (Dulbecco's modified Eagle's medium, manufactured by Fuji Film Wako Pure Chemical Industries, Cat. No. 043-30085) containing 10% FBS (fetal bovine serum), which is an ordinary culture medium.
HeLa cells adhering to the culture plate were washed with PBS, 0.25% trypsin/EDTA solution was added, and the cells were incubated for 3 min at 37° C. After incubation, the same DMEM medium including 10% FBS was added to deactivate the trypsin, and the cells were then precipitated by centrifugation for 5 min at 150×g. The supernatant produced by centrifugation was removed, and the same DMEM including 10% FBS was added to the precipitate (cell pellet) to prepare an approximately 1×10^5 cells/mL cell suspension. A total of 2 mL of the cell suspension was added to the wells of a commercial 6-hole (well) plate (AGC Techno Glass Co., Ltd) to seed the cells (at approximately 2×10^5 cells/well). Subsequent culturing for 3 h at 37° C. under conditions of 5% CO2 caused the cells to adhere to the bottom of the wells.
Next, the above 2 mM sample solution 1 was diluted with DMEM including 10% FBS to prepare a sample solution 1 in which the concentration of Sample 1 was 20 μM. A total of 1 mL of the culture supernatant was removed from the wells after the 3 h of culture, and 1 mL of the 20 μM sample solution 1 was added to the wells (that is, the concentration of Sample 1 in the culture solution in the wells was made 10 μM and the DMSO concentration was made 0.5%). The cells were then incubated for 20 h at 37° C. under conditions of 5% CO2. After such 20-h incubation, the culture supernatant was removed from the wells, and the cells in the wells were washed twice with 1 mL of PBS. A total of 200 μL of 0.25% trypsin/EDTA solution was then added to the wells, and the cells were incubated for 3 min at 37° C. After this incubation, 400 μL of the above DMEM containing 10% FBS was added to the wells to deactivate the trypsin, the cell suspension in the well was thereafter transferred to a tube, and the cells were collected. A total of 600 μL of PBS was then added to the wells to wash the wells. The PBS in the wells was then transferred to the above tube to collect the cells remaining in the wells in the tube. This tube was centrifuged for 5 min under conditions of 210×g at 4° C. After centrifugation the supernatant was removed, and the precipitate (cell pellet) was suspended (washed) in 1 mL of PBS and centrifuged under the same conditions as described above. This operation was repeated twice, and the supernatant was thereafter removed to obtain cells (a cell pellet) that had been cultured in medium including Sample 1.
The cell penetrating ability of Sample 1 was analyzed by using flow cytometry with respect to the cells (cell pellet) obtained above. An On-chip Flow cytometer (manufactured by On-chip Biotechnologies Co., Ltd.) was used as the flow cytometer.
For this analysis, the cell pellet obtained above was suspended in 50 μL of PBS. A total of 50 μL of 2× sample buffer for flow cytometry was further added to this suspension to prepare a cell suspension for analysis.
Gating was performed using the flow cytometer on the basis of forward scatter (FSC) and side scatter (SSC), a gate was set for the cell population under analysis, and fluorescent intensity was measured for the cell population within this gate. Analysis was performed so that the cell population was composed of about 10,000 cells. Fluorescent intensity was measured using the fluorescence detector FL2 (optimal detection wavelength close to 543 nm) of the flow cytometer, which can detect the fluorescent wavelength of FAM. […]

Substance | MFI (mean fluorescent intensity) | MFI value compared to Example 2
5(6)-carboxyfluorescein [Example 4, reference compound] | 14.3 | 
FAM-VVKSLVKVVKSLVK-CONH2 ({FAM}-VVKSLVKVVKSLVK-NH2) [Example 1] | 1591 | more than twice
FAM-VVRSLVKVVRSLVK-CONH2 ({FAM}-VVRSLVKVVRSLVK-NH2) [Example 2] | 715 | 
FAM-VVRSLVRVVRSLVR-CONH2 ({FAM}-VVRSLVRVVRSLVR-NH2) [Example 3] | 489 | greatly reduced
